Experimental data taken from patent publication US20240415778A1, “ORAL PREPARATION CONTAINING PROGESTOGEN, AND PREPARATION METHOD AND USE” (priority 2021, published 2024).
Entries after “also recorded” stand apart in the source; their conditions may differ. Like-named read-outs stand apart in the source and are kept apart here.

Assays:
[1] = Acceptable daily intake (ADI) of excipients
Text: The applicant has previously collaborated with other entities to develop an oral formulation of 17-α hydroxyprogesterone and obtained a patent for it.

[2] = WHO-JECFA database or supplier values; cited from earlier work
[3] = Solubility property of 17-HPC in different excipients; format: physicochemical
Text: However, the stable solubility concentrations vary for each excipient, with specific values provided in the last column of Table 2.

ADI/Weight 60 kg ([1]; for 60 kg body weight) | Suggested working concentrations based on physical stability and saturated solubility results ([3]; Glycerol Monooleate (Maisine ® CC)) [mg/g] | Suggested working concentrations based on physical stability and saturated solubility results ([3]; Mono-Octanoin Glyceride (Capmul 808G)) [mg/g] | Suggested working concentrations based on physical stability and saturated solubility results ([3]; Oleic Acid) [mg/g] | Suggested working concentrations based on physical stability and saturated solubility results ([3]; Oleic Acid Glyceride (Peceol ®)) [mg/g] | Suggested working concentrations based on physical stability and saturated solubility results ([3]; PEG35 Castor Oil (Kolliphor ® ELP)) [mg/g] | Suggested working concentrations based on physical stability and saturated solubility results ([3]; Propylene Glycol Monocaprylate (Capryol ® 90)) [mg/g] | Suggested working concentrations based on physical stability and saturated solubility results ([3]; Propylene Glycol Monolaurate (Lauroglycol ® 90)) [mg/g] | ADI/Weight 60 kg [1] | Molecule | Acceptable Daily Intake (ADI) [2] | Suggested working concentrations based on physical stability and saturated solubility results ([3]; Olive Oil) | Suggested working concentrations based on physical stability and saturated solubility results ([3]; PEG15 Hydroxystearate (Kolliphor ® HS15)) | Suggested working concentrations based on physical stability and saturated solubility results ([3]; PEG40 Hydrogenated Castor Oil (Kolliphor ® RH40))
3.36 | – | – | – | – | – | – | – | – | Propylene glycol monocaprylate | 56 mg/kg/day | – | – | –
– | 65 | 120 | 70 | 50 | 30 | 150 | 100 | – | CCCCCC(=O)O[C@]1(C(C)=O)CC[C@H]2[C@@H]3CCC4=CC(=O)CC[C@]4(C)[C@H]3CC[C@@]21C [Formulation 17-HPC, hydroxyprogesterone caproate] | – | insufficient to meet the meaningful solubility concentration required for adult formulations | cannot achieve stable solubility; also recorded: Chemically unstable | cannot achieve stable solubility; also recorded: Chemically unstable
– | – | – | – | – | – | – | – | none | CCCCCCCC(=O)OCC(O)CO (centres unmarked) [Glycerol monocaprylate] | none | – | – | –
